Measurements taken from ChEMBL document CHEMBL1122135, “Modifications of primaquine as antimalarials. 3. 5-Phenoxy derivatives of primaquine” (J Med Chem, 1982).

Experiments:
[1] = test system: Mus musculus; test: Antimalarial activity was determined in Plasmodium berghei infected mice (Mus musculus) at 40 mg/kg dose; type: functional; set-up: unit not given beside the values
[2] = test system: Plasmodium cynomolgi; test: Cures in Plasmodium cynomolgi infected rhesus monkey at 10 mg/kg, n=1; type: functional
[3] = test system: Mus musculus; test: (§1) Antimalarial activity was determined in Plasmodium berghei infected mice (Mus musculus) at 320 mg/kg dose; type: functional
[4] = test system: Mus musculus; test: Antimalarial activity was determined in Plasmodium berghei infected mice (Mus musculus) at 80 mg/kg dose; type: functional
[5] = test system: Mus musculus; test: Antimalarial activity was determined in Plasmodium berghei infected mice (Mus musculus) at 640 mg/kg dose; type: functional
[6] = test system: Mus musculus; test: Antimalarial activity was determined in Plasmodium berghei infected mice (Mus musculus) at 160 mg/kg dose; type: functional
[7] = test system: Plasmodium cynomolgi; test: Cures in Plasmodium cynomolgi infected rhesus monkey at 3.16 mg/kg, n=2; type: functional
[8] = test system: Mus musculus; test: Antimalarial activity was determined in Plasmodium berghei infected mice (Mus musculus) at 20 mg/kg dose; type: functional; set-up: unit not given beside the values
[9] = test system: Plasmodium cynomolgi; test: Cures in Plasmodium cynomolgi infected rhesus monkey at 1 mg/kg, n=3; type: functional
[10] = test system: Plasmodium cynomolgi; test: Cures in Plasmodium cynomolgi infected rhesus monkey at 0.125 mg/kg, n=1; type: functional
[11] = test system: Plasmodium cynomolgi; test: Cures in Plasmodium cynomolgi infected rhesus monkey at 1 mg/kg, n=1; type: functional
[12] = test system: Mus musculus; test: as §1; type: functional; set-up: unit not given beside the values
[13] = test system: Plasmodium cynomolgi; test: Cures in Plasmodium cynomolgi infected rhesus monkey at 0.5 mg/kg; n=2; type: functional
[14] = test system: Plasmodium cynomolgi; test: Cures in Plasmodium cynomolgi infected rhesus monkey at 0.25 mg/kg, n=5; type: functional
[15] = test system: Plasmodium cynomolgi; test: Cures in Plasmodium cynomolgi infected rhesus monkey at 0.75 mg/kg, n=6; type: functional
[16] = test system: Plasmodium cynomolgi; test: Cures in Plasmodium cynomolgi infected rhesus monkey at 0.25 mg/kg, n=1; type: functional
[17] = organism: Mus musculus; test: Number of mice (Mus musculus) survived after 60 days of post infection with Plasmodium berghei; type: functional
[18] = test system: Mus musculus; test: Number of toxic death was determined in Plasmodium berghei infected mice (Mus musculus) at 640 mg/kg dose; type: ADME, organism-based; set-up: dose 640 mg/kg; conditions: in vivo
[19] = test system: Mus musculus; test: Number of toxic death was determined in Plasmodium berghei infected mice (Mus musculus) at 320 mg/kg dose; type: ADME, organism-based; set-up: dose 320 mg/kg; conditions: in vivo
[20] = test system: Plasmodium cynomolgi; test: Cures in Plasmodium cynomolgi infected rhesus monkey at 0.5 mg/kg, n=12; type: functional
[21] = test system: Plasmodium cynomolgi; test: Cures in Plasmodium cynomolgi infected rhesus monkey at 0.75 mg/kg, n=9; type: functional
[22] = test system: Plasmodium cynomolgi; test: Cures in Plasmodium cynomolgi infected rhesus monkey at 0.316 mg/kg, n=2; type: functional
[23] = test system: Mus musculus; test: Number of toxic death was determined in Plasmodium berghei infected mice (Mus musculus) at 160 mg/kg dose; type: ADME, organism-based; set-up: dose 160 mg/kg; conditions: in vivo
[24] = test system: Plasmodium cynomolgi; test: Number of cures in Plasmodium cynomolgi infected rhesus monkey at 0.25 mg/kg, n=8; type: functional
[25] = test system: Plasmodium cynomolgi; test: Cures in Plasmodium cynomolgi infected rhesus monkey at 0.5 mg/kg, n=1; type: functional
[26] = test system: Plasmodium cynomolgi; test: Cures in Plasmodium cynomolgi infected rhesus monkey at 1 mg/kg, n=2; type: functional
[27] = test system: Plasmodium cynomolgi; test: Cures in Plasmodium cynomolgi infected rhesus monkey at 0.316 mg/kg, n=4; type: functional
[28] = test system: Mus musculus; test: Number of mice (Mus musculus) survived after 60 days of post infection with Plasmodium berghei at a dose of 10 mg/kg; type: functional
[29] = test system: Mus musculus; test: Number of mice (Mus musculus) survived after 60 days of post infection with Plasmodium berghei at a dose of 640 mg/kg; type: functional
[30] = test system: Mus musculus; test: Number of mice (Mus musculus) survived after 60 days of post infection with Plasmodium berghei at a dose of 40 mg/kg; type: functional
[31] = test system: Mus musculus; test: Number of mice (Mus musculus) survived after 60 days of post infection with Plasmodium berghei at a dose of 160 mg/kg; type: functional
[32] = test system: Mus musculus; test: Number of mice (Mus musculus) survived after 60 days of post infection with Plasmodium berghei at a dose of 320 mg/kg; type: functional
[33] = test system: Mus musculus; test: Number of mice (Mus musculus) survived after 60 days of post infection with Plasmodium berghei at a dose of 80 mg/kg; type: functional
[34] = test system: Mus musculus; test: Number of mice (Mus musculus) survived after 60 days of post infection with Plasmodium berghei at a dose of 20 mg/kg; type: functional
[35] = test system: Mus musculus; test: Antimalarial activity was determined in Plasmodium berghei infected mice (Mus musculus) at 10 mg/kg dose; type: functional
[36] = test system: Plasmodium cynomolgi; test: Cures in Plasmodium cynomolgi infected rhesus monkey at 0.125 mg/kg; n=5; type: functional
[37] = test system: Plasmodium cynomolgi; test: Cures in Plasmodium cynomolgi infected rhesus monkey at 0.5 mg/kg, n=5; type: functional
[38] = test system: Plasmodium cynomolgi; test: Cures in Plasmodium cynomolgi infected rhesus monkey at 3.16 mg/kg, n=1; type: functional

Structure (SMILES) | Delta MST [1] | Cures [2] | Delta MST [4] | Delta MST [6] | Delta MST [8] | Cures [11] | Delta MST [12] | other results
COc1cc(NC(C)CCCN)c2ncccc2c1Oc1ccc(Cl)c(Cl)c1 (stereo not given) | 0.8 | 1 | 0.4 | 6 | 1.2 | – | – | Cures [3]: 1; Cures [5]: 1; Cures [7]: 2; Cures [9]: 1
COc1cc(NC(C)CCCN)c2ncccc2c1Oc1cccc(C(F)(F)F)c1 (stereo not given) | 1.3 | – | 4.1 | 7.1 | 0.5 | 1 | 13.5 | Cures [10]: 0; Cures [5]: 5; Cures [13]: 2; Cures [14]: 3
COc1cc(NC(C)CCCN)c2ncccc2c1Oc1ccc(Cl)cc1 (stereo not given) | 4.7 | 1 | 5.5 | 7.1 | 0.7 | – | 8.1 | Cures [15]: 5; Cures [16]: 0; Cures [17]: 2; Cures [13]: 0; Cures [9]: 3
COc1cc(NC(C)CCCN)c2ncc(C)cc2c1Oc1ccc(F)c(C(F)(F)F)c1 (stereo not given) | 9.9 | – | 4 | 5 | 5.9 | – | 4 | Toxic deaths [18]: 1
COc1cc(NC(C)CCCN)c2ncccc2c1 (stereo not given) [PRIMAQUINE] | 5 | – | 9.4 | – | 4 | – | – | Toxic deaths [18]: 5; Toxic deaths [19]: 5; Cures [20]: 10; Cures [21]: 9; Cures [22]: 0; Toxic deaths [23]: 2; Cures [24]: 0
COc1cc(NC(C)CCCN)c2ncccc2c1Oc1ccc(NC(C)=O)cc1 (stereo not given) | – | – | – | – | – | 0 | – | Cures [25]: 0
COc1cc(NC(C)CCCN)c2nccc(C)c2c1 (stereo not given) | – | – | – | 9 | – | – | 10 | Toxic deaths [18]: 1; Cures [26]: 2; Cures [27]: 0
COc1cc(NC(C)CCCN)c2ncccc2c1Oc1ccc(F)c(C(F)(F)F)c1 (stereo not given) | 0.8 | – | 3.4 | 4.6 | -0.2 | 1 | 12.2 | Cures [5]: 2; Cures [22]: 2
COc1cc(NC(C)CCCN)c2nccc(C)c2c1Oc1ccc(F)c(C(F)(F)F)c1 (stereo not given) | – | – | – | – | – | – | – | Cures [28]: 1; Cures [29]: 5; Cures [30]: 5; Cures [31]: 5; Cures [32]: 5; Cures [33]: 5; Cures [34]: 1
COc1cc(NC(C)CCCN)c2ncccc2c1Oc1ccc(OC(F)(F)F)cc1 (stereo not given) | -0.3 | 1 | -0.3 | 0.5 | -0.3 | 0 | 0.7 | Toxic deaths [18]: 1
COc1cc(NC(C)CCCN)c2ncccc2c1Oc1ccccc1 (stereo not given) | 1.5 | – | 1.7 | 5.1 | 0.3 | – | 7.5 | Cures [17]: 2
COc1cc(NC(C)CCCN)c2nccc(C)c2c1Oc1ccccc1 (stereo not given) | – | – | – | – | – | – | – | Toxic deaths [18]: 2; Toxic deaths [19]: 3; Delta MST [35]: 8.7; Cures [30]: 3; Cures [31]: 4; Cures [33]: 4; Cures [34]: 4
COc1cc(NC(C)CCCN)c2ncccc2c1Oc1ccc(Cl)cc1Cl (stereo not given) | 0.4 | 1 | 0.8 | 2.2 | 0.4 | – | 4.4 | Delta MST [5]: 10.4; Cures [7]: 2; Cures [9]: 0
COc1cc(NC(C)CCCN)c2ncccc2c1Oc1ccc(F)cc1 (stereo not given) | 2.1 | – | 5.7 | 7.5 | – | – | 8.9 | Cures [36]: 0; Cures [17]: 5; Cures [37]: 5; Cures [24]: 3
COc1ccc(Oc2c(OC)cc(NC(C)CCCN)c3ncccc23)cc1 (stereo not given) | 0.4 | 1 | 1.6 | 6 | 0.4 | 0 | 8.6 | Cure [5]: 4
COc1cc(NC(C)CCCN)c2nccc(C)c2c1Oc1cc(C(F)(F)F)cc(C(F)(F)F)c1 (stereo not given) | – | – | – | – | 4.3 | – | – | Cures [29]: 5; Delta MST [35]: 1.7; Cures [30]: 3; Cures [31]: 5; Cures [32]: 5; Cures [33]: 5
COc1cc(NC(C)CCCN)c2ncccc2c1Oc1cc(C(F)(F)F)cc(C(F)(F)F)c1 (stereo not given) | 0.3 | 1 | 0.3 | 1.5 | 0.7 | 0 | 6.3 | Delta MST [5]: 7.9; Cures [38]: 1
